Assay results reported in US20240158379A1, “NOVEL BENZOFURAN, BENZOTHIOPHENE, AND INDOLE ANALOGS THAT INHIBIT THE FORMATION OF TAU OLIGOMERS AND THEIR METHOD OF USE” (OLIGOMERIX INC., priority 2016, published 2024).

Target: recombinant human tau 4R2N (Homo sapiens (Human), UniProt P10636)
Assay: AlphaLisa Assay (ALA), primary screen for inhibition of tau oligomer formation
Assay type: biochemical
Settings: tau target 300 nM, Tris-HCl pH 7.4, 4 hours room temperature, compound 0.098 uM-50 uM
Description: Bacterial recombinant human tau 4R2N (the largest isoform of tau in the central nervous system, 441 amino acids in length, Seq ID 1) constructs with either 6×-His or StrepII N-terminal epitope tags were purified from bacterial lysate using denaturing conditions to prepare tau in its monomeric form.
ALA Assay: AlphaLisa Assay (ALA) was used as a primary screen for identifying compounds that inhibit tau oligomer formation. It is a bead based assay that only gives signal when the beads are in close proximity to each other. When the tau monomer (target) is incubated it forms higher order aggregates (dimer, trimer, tetramer, etc) so that when the donor and acceptor beads bind to the epitope tags of tau they are in close proximity and generate signal.
Tau target (equal mixture of each construct at 300 nM) was prepared in buffer (Tris-HCl pH 7.4) and was incubated in 96-well plates at room temperature for 4 hours with vehicle control (DMSO) and a dose range of a compound of the disclosure (0.098 uM-50 uM). AlphaLisa acceptor beads & donor beads with ligands to the epitope tags (Perkin Elmer) were diluted (final 20 ug/mL per bead) in bead buffer (25 mM HEPES pH 7.4, 100 mM NaCl, 0.1% Tween-20), added to the wells and incubated 1 hour at room temperature. The positive control (non-incubated target) & blank (no tau) were prepared and mixed with beads in bead buffer and the plate was read immediately using the EnVision plate reader (Perkin Elmer).

recombinant human tau 4R2N, sequence (P10636 other isoform, or with tags, fused parts or gaps): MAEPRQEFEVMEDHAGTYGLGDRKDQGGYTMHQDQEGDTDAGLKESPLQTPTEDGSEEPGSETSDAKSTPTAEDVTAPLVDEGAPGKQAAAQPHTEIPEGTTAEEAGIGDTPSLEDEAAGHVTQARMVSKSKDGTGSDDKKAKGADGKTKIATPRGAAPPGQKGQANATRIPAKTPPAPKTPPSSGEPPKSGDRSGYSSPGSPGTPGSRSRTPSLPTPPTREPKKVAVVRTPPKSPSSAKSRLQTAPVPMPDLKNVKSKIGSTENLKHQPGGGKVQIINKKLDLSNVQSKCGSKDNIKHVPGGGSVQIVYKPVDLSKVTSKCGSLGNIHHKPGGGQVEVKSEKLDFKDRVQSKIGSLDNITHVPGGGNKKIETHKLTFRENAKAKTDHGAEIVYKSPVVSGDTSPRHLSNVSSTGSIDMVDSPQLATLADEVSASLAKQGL

| SMILES | IC50 |
| --- | --- |
| CC(=O)CCc1oc2ccc(Br)cc2c1CCC(C)C [Example 9, 4-[5-Bromo-3-(3-methyl-butyl)-benzofuran-2-yl]-butan-2-one] | > 10 µM |
| Cc1ccc(-c2c(CCC(=O)O)oc3ccc(Br)cc23)o1 [Example 12, 3-[5-Bromo-3-(5-methyl-furan-2-yl)-benzofuran-2-yl]-propionic acid] | 6.09 µM |
| Cc1ccc(-c2c(CCC(=O)N3CCC(O)CC3)oc3ccc(Br)cc23)o1 [Example 13, 3-[5-Bromo-3-(5-methyl-furan-2-yl)-benzofuran-2-yl]-1-(4-hydroxy-piperidin-1-yl)-propan-1-one] | 5.78 µM |
| CC(=O)CCc1oc2ccc(-c3ccncc3)cc2c1-c1ccc(Cl)s1 [Example 18, 4-(3-(5-Chlorothiophen-2-yl)-5-(pyridin-4-yl)benzofuran-2-yl)butan-2-one] | 7.67 µM |
| COc1cc(-c2ccc3oc(CCC(C)=O)c(-c4ccc(Cl)s4)c3c2)ccn1 [Example 19, 4-(3-(5-chlorothiophen-2-yl)-5-(2-methoxypyridin-4-yl)benzofuran-2-yl)butan-2-one] | 20.8 µM |
| CC(=O)CCc1oc2ccc(-c3ccc(Cl)nc3)cc2c1-c1ccc(Cl)s1 [Example 20, 4-(5-(6-Chloropyridin-3-yl)-3-(5-chlorothiophen-2-yl)benzofuran-2-yl)butan-2-one] | 15.4 µM |
| CC(=O)CCc1oc2cc(-c3ccncc3)ccc2c1-c1ccc(C)o1 [Example 22, 4-(3-(5-Methylfuran-2-yl)-6-(pyridin-4-yl)benzofuran-2-yl)butan-2-one] | 3.42 µM |
| CC(=O)CCc1oc2ccc(Br)cc2c1CCc1ccc(C)cc1 [Example 26, 4-(5-Bromo-3-(2-p-tolylethyl)benzofuran-2-yl)butan-2-one] | > 10 µM |

Now those with a lower IC50, led by results:

| IC50 | SMILES |
| --- | --- |
| 2.48 µM | COc1ccc(-c2ccc3c(-c4ccc(C)o4)c(CCC(C)=O)oc3c2)cn1 [Example 28, 4-(6-(6-Methoxypyridin-3-yl)-3-(5-methylfuran-2-yl)benzofuran-2-yl)butan-2-one] |
| 1.31 µM | CC(=O)CCc1oc2ccc(-c3cccs3)cc2c1-c1ccc(C)o1 [Example 8, 4-(3-(5-Methylfuran-2-yl)-5-(thiophen-2-yl)benzofuran-2-yl)butan-2-one] |
| 1.17 µM | CC(=O)CCc1oc2cc(Br)ccc2c1-c1ccc(C)o1 [Example 21, 4-(6-Bromo-3-(5-methylfuran-2-yl)benzofuran-2-yl)butan-2-one] |
